In brackets after ≈: the same amount, converted by molar mass. Read-outs that look alike come from different tables or passages of the source. Numbered stars: 1 amine (or outer) side, 2 acyl side, 3 side chain; on linkers, the order of the positions; unused ones are H or OH. Side chains are listed from the residue outwards. Peptide text beside a SMILES is read from it. * marks the point of attachment. γGlu = O=C(O)[C@H](CCC(=O)[*:2])N[*:1]; Palmitoyl = CCCCCCCCCCCCCCCC(=O)*
Tests used:
[1] = Peptide solubility in isotonic formulations (DF, BF1, BF2); conditions: formulation DF (DF/BF1 for G797)
Method: Formulations. Peptide solubility was assessed in three different isotonic formulations: • 1. […] Final formulation pH=7.2 • 2. Back up formulation 1 (BF1)=0.05M Tris, 50 nM Arginine/Proline. Final formulation pH=8.0 • 3. […] Final formulation pH=7.0

Rat GlucR = target: T1, Rat GlucR (Rattus norvegicus, UniProt P30082); experiment: cAMP assay in presence of serum albumin (assay 2), 3.2% rat serum albumin; type: cell-based; conditions: relative potencies vs native ligands
T1 construct: expressed in transfected cells
T1 sequence (P30082 27-485): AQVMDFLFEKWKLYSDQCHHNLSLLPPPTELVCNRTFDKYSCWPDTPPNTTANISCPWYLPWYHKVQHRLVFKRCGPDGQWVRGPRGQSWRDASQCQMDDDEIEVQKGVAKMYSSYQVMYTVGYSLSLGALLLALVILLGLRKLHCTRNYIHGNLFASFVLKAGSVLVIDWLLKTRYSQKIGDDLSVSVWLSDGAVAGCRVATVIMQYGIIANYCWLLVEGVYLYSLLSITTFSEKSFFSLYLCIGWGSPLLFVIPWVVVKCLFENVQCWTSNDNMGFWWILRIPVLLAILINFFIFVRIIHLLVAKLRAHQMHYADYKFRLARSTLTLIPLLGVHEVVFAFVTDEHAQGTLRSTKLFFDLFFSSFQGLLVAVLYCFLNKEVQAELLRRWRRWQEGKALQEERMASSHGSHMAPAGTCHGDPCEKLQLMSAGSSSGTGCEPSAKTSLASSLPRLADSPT
Method: CHO cells with stable recombinant expression of the human, mouse or rat GlucR or GLP-t receptor were cultured in DMEM 10% FBS and geneticin (100 μg/mil). Cryopreserved cell stocks were prepared in 1× cell freezing medium-DMSO serum free (Sigma Aldrich) at 2×10^7/vial and stored at […]. […] Peptides were serially diluted in DMSO and then diluted 100 fold into DMEM containing serum albumin at stated final concentration. […] Cells were added to the assay plates and incubated for 30 min at room temperature. Following incubation the assay was stopped and cAMP levels measured using the HTRF® dynamic d2 cAMP assay kit available from CisBio Bioassays, as per the manufacturer's guidelines. Plates were read on Perkin Elmer ENVISION® fluorescence plate readers. Human and rat serum albumin were purchased from Sigma Aldrich and mouse serum albumin from Equitech Bio Ltd.

[2] = Peptide solubility in buffers (A280); type: physicochemical; conditions: target 1 mg/ml, read-out: Conc. (A280), solubility
Source text: G7310 was soluble in a pH range of 4.5 to 8.0.

[3] = type: in vitro ADME, rat
Method: (§1) Stability testing of peptides in plasma.
(§2) Stock solutions of the peptides of about 200 μmol/L was prepared by weighing solid peptide into a Eppendorf Low Bind Tube and dissolved in DMSO. 10 μL of stock solutions were added to 990 μL of plasma in an Eppendorf Low Bind Tube, resulting in initial concentrations of the peptides in plasma of about 2 μmol/L. The frozen blank plasma from human, rat and mouse had been thawed and heated to a temperature of 37° C. before addition of the stock solution. The spiked plasma samples were gently mixed and allowed to equilibrate for about 5 minutes before start of experiment. The plasma samples were incubated for 48 hours in a GalaxyR CO2 incubator at 37° C. Sampling (30 μL) was performed at 0, 1, 2, 6.5, 17, 24 and 48 hours. The samples were stored at −70° C. until analysis.
Plasma samples were assayed as follows. The 30 μL plasma samples were protein precipitated with […] of cold ethanol in a 96-well low bind plate (Eppendorf Protein LoBind). After mixing and centrifugation, 100 μl the supernatant was transferred to a new plate and 1 μl was injected onto an analytical column. […]
The resulting data were manually evaluated for the following degradation products: +1 product (acid) and the DPP IV-cleavage product. […] Peaks were integrated and % remaining peptide was calculated: (peak area/peak area 0H)*100. […]

[4] = test system: diet induced obesity (DIO) mouse model; experiment: Diet induced obesity (DIO) mouse model, study A; type: in vivo; conditions: for BeHy / Insulin / Plasma NEFA: day 14
Source text: Female C57/Bl6JHsdOla (obtained from Harlan Laboratories. UK) were started on a high fat diet of D12492 (Research Diets, NJ, USA) and a chocolate confection, delicato ball (Delicata Bakverk, Sweden) at 9-11 weeks of age, and were maintained on the diet for 16 weeks prior to arrival to the animal facility, during a three week acclimation period and during drug treatment, caloric content of the two components of the diet is shown in Table 11. The mice were divided into 9 groups (n=5-6), and treatment was started at 29 weeks of age.
The body weight of the animals was monitored daily throughout die dosing period. At day 14, blood samples for the measurement of plasma glucose and insulin from conscious mice were obtained after a 4-hour fasting period. Mice were then anaesthetized using isofluorane and terminal blood was collected from the capillary bed behind the eye. The following parameters were measured: blood chemistry measurements of triglycerides, total cholesterol, non-esterified fatty acids (NEFA), beta-hydroxybutyrate and fibroblast growth factor 21 (FGF21) (Tables 14 and 15 below).

human serum albumin = human serum albumin (Homo sapiens, UniProt P02768); experiment: Fraction of free peptide calculated from variation in cAMP generation with HSA concentration; conditions: calculated from cAMP generation vs HSA concentration
human serum albumin, sequence (P02768 25-609): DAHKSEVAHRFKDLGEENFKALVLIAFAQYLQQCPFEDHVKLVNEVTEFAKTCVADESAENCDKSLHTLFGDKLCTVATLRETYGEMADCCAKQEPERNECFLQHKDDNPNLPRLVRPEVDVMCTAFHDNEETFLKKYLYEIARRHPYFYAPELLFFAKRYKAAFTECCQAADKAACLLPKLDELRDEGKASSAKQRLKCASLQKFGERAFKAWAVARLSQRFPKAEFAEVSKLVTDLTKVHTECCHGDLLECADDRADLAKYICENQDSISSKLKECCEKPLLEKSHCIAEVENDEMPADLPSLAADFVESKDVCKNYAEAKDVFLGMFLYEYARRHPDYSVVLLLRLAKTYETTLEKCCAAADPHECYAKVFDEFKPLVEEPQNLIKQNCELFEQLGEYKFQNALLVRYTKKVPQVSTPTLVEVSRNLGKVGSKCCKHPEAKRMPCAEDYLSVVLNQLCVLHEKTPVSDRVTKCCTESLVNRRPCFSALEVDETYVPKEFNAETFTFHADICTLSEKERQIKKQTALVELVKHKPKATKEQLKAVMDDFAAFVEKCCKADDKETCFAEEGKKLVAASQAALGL
Source text: Data was transformed to % Delta F as described in manufacturer's guidelines and analysed by 4-parameter logistic fit to determine EC50 values. […] To compare the balance of activities at the GLP1R and GlucR between different peptides and across different conditions, these can be correlated using the calculation below, where the EC50's are related to those of the natural ligands.

[5] = Stability testing of peptides in plasma; type: in vitro ADME, mouse
Method: as §1, §2
(§3) Plasma samples were assayed as follows. The 30 μL plasma samples were protein precipitated with […] of cold ethanol in a 96-well low bind plate (Eppendorf Protein LoBind). After mixing and centrifugation, 100 μl the supernatant was transferred to a new plate and 1 μl was injected onto an analytical column.
(§4) The analysis was performed using a μLC-system (LC Exigent μLC) coupled to a medium high resolution mass spectrometer (Perkin Elmer PenTOF) with positive electrospray ionisation. The analytical column was a 5 cm, 1 mm Agilent Poroshell (custom made) C18-column with a particle size of 2.7 μm. Flow: 0.1 ml/min using a slow reversed phase gradient. Mobile phases used were acetonitrile and water containing 0.1% formic acid.
The resulting data were manually evaluated for the following degradation products: +1 product (acid) and the DPP IV-cleavage product. Products with +1 mass may arise from deamidation at amide groups of glutamine or at the C-terminus. Cleavage products arise from the action of the protease DPP IV in plasma. Both the degradation of the peptides and formation of peptide products were reported in percentage of the initial peptide concentration. Peaks were integrated and % remaining peptide was calculated: (peak area/peak area 0H)*100. […]

[6] = type: in vitro ADME, human
Method: as §1, §2, §3, §4
The resulting data were manually evaluated for the following degradation products: +1 product (acid) and the DPP IV-cleavage product. Products with +1 mass may arise from deamidation at amide groups of glutamine or at the C-terminus. Cleavage products arise from the action of the protease DPP IV in plasma. Both the degradation of the peptides and formation of peptide products were reported in percentage of the initial peptide concentration. Peaks were integrated and % remaining peptide was calculated: (peak area/peak area 0H)*100. Levels of deamidation and DPP IV cleavage were low for G797 and G933.

SMILES: CCCCCCCCCCCCCCCC(=O)N[C@@H](CCC(=O)NCCCC[C@H](NC(=O)[C@H](CCCCN)NC(=O)[C@H](CO)NC(=O)[C@H](Cc1ccc(O)cc1)NC(=O)[C@H](CC(=O)O)NC(=O)[C@H](CO)NC(=O)[C@@H](NC(=O)[C@H](Cc1ccccc1)NC(=O)[C@@H](NC(=O)CNC(=O)[C@H](CCC(N)=O)NC(=O)[C@H](CO)NC(=O)[C@@H](N)Cc1c[nH]cn1)[C@@H](C)O)[C@@H](C)O)C(=O)N[C@@H](CC(C)C)C(=O)N[C@@H](CC(=O)O)C(=O)N[C@@H](CO)C(=O)N[C@@H](CCC(=O)O)C(=O)N[C@@H](CCCNC(=N)N)C(=O)N[C@@H](C)C(=O)N[C@@H](CCCNC(=N)N)C(=O)N[C@@H](CC(=O)O)C(=O)N[C@@H](Cc1ccccc1)C(=O)N[C@H](C(=O)N[C@@H](C)C(=O)N[C@@H](Cc1c[nH]c2ccccc12)C(=O)N[C@@H](CC(C)C)C(=O)N[C@H](C(=O)N[C@@H](C)C(=O)NCC(=O)NCC(N)=O)C(C)C)C(C)C)C(=O)O [Peptide G730] (H-HSQGTFTSDYSKK([γGlu-Palmitoyl])LDSERARDFVAWLVAGG-NH2; N-terminus assumed)
- Formulation Concentration [1]: 5 mg/mL
- Rat GlucR/GLP1R Ratio (Rat GlucR): 0.05
- solubility ([2]; Tris buffer, Tris pH 7.5, 100 mM): 830 µg/mL (≈ 225 µM)
- solubility ([2]; Tris buffer, Tris pH 8.0, 100 mM): 1100 µg/mL (≈ 298 µM)
- solubility ([2]; glutamate buffer, Glutamate pH 4.5, 100 mM): 830 µg/mL (≈ 225 µM)
- solubility ([2]; phosphate buffer, Phosphate pH 6, 100 mM): 140 µg/mL (≈ 37.9 µM)
- solubility ([2]; phosphate buffer, Phosphate pH 6.5, 100 mM): 830 µg/mL (≈ 225 µM)
- solubility ([2]; phosphate buffer, Phosphate pH 7.5, 100 mM): 850 µg/mL (≈ 230 µM)
- % DPP cleaved product/+1 DPP cleaved product [3]: 2%
- BeHy ([4]; 10 nmol/kg): 426 u mol/l
- Insulin ([4]; 10 nmol/kg): 0.4 nM
- Plasma NEFA ([4]; 10 nmol/kg): 0.28 Mm
- BeHy ([4]; 20 nmol/kg): 750 u mol/l
- Insulin ([4]; 20 nmol/kg): 0.2 nM
- Plasma NEFA ([4]; 20 nmol/kg): 0.26 Mm
- BeHy ([4]; 50 nmol/kg): 1477 u mol/l
- Insulin ([4]; 50 nmol/kg): 0.3 nM
- Plasma NEFA ([4]; 50 nmol/kg): 0.32 Mm
- body weight over the 14 day dosing period ([4]; study A, in words): dose dependent and continuous weight loss
- glucose levels at day 14 ([4]; study A, in words): dose-dependent reduction in glucose levels
- free peptide at 4.4% HSA (human serum albumin): 0.85%
- % +1 prod [5]: 15%
- % stable peptide ([5]; mouse plasma, 37° C., 24 h): 65%
- % +1 prod [6]: <1%
- % DPP cleaved product/+1 DPP cleaved product [6]: <1%
